This is an account of results in ChEMBL document CHEMBL1146972, “Specific inhibitors of Plasmodium falciparum thioredoxin reductase as potential antimalarial agents” (Bioorg Med Chem Lett, 2006).

In test [1] the target is Glutathione reductase (Plasmodium falciparum 3D7) (UniProt O15770). In words: Inhibition of Plasmodium falciparum GR at 2 uM.
Test [2] deals with Thioredoxin reductase (Homo sapiens, UniProt Q16881+Q9NNW7+Q86VQ6). Put plainly: Inhibition of human TrxR. The class given is protein assay.
In test [3] the target is T1, Glutathione reductase, mitochondrial (Homo sapiens) (UniProt P00390).
T1 sequence (whole entry): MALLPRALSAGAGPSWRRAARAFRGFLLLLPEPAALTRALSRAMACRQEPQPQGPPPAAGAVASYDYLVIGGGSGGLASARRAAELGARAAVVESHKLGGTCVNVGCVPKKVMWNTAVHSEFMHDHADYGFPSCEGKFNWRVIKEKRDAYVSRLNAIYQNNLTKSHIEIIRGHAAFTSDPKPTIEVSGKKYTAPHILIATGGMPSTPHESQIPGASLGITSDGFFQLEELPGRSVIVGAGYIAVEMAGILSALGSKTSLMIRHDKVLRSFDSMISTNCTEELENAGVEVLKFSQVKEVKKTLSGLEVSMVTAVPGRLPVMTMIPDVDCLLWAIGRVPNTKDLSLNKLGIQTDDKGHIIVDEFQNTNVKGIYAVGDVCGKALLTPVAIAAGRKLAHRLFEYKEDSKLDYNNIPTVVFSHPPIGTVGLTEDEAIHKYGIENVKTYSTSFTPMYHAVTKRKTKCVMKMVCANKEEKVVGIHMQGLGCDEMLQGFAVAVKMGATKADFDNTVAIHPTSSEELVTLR
In words: Inhibition of human GR at 2 uM.

In test [4] the target is T2, Thioredoxin reductase (Plasmodium falciparum 3D7, UniProt P61076).
T2 sequence (P61076 whole entry): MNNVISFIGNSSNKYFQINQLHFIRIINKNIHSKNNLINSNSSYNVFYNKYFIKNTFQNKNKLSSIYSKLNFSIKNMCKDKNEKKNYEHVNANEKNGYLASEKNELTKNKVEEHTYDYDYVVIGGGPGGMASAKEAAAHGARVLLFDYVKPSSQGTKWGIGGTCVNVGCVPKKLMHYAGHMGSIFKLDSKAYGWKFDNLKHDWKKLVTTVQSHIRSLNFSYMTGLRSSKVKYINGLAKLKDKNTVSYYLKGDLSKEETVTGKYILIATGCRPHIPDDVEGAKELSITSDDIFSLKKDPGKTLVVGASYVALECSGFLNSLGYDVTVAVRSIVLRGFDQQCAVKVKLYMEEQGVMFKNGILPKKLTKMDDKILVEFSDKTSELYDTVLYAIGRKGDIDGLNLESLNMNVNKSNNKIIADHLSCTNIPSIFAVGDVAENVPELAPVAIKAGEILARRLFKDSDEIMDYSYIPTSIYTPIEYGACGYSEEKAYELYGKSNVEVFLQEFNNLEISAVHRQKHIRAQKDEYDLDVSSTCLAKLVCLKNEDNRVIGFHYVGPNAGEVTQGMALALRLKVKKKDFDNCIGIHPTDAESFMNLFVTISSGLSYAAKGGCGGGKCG
In words: Inhibition of Plasmodium falciparum TrxR.

The target of test [5] is T3, Thioredoxin reductase (Plasmodium falciparum 3D7) (UniProt P61076).
T3 sequence (whole entry): T2 sequence (P61076 whole entry)
The note with it: 2 uM.

Test [6] has as its system Plasmodium falciparum. In words: Growth inhibition against Plasmodium falciparum K1. The class given is functional, organism-based.
Test [7] addresses T3, Thioredoxin reductase (Plasmodium falciparum 3D7). Particulars: 2 uM. The source holds these as a separate data set.
Test [8] shares this target. Particulars: 100 uM.
The target is the same in test [9]. In words: Inhibition of Plasmodium falciparum TrxR at 100 uM.
For test [10], the target named is T2, Thioredoxin reductase. Put plainly: Binding affinity to Plasmodium falciparum TrxR in presence of thioredoxin.
The test system of test [11] is Plasmodium falciparum. Put plainly: Inhibition of Plasmodium falciparum K1 as [3H]hypoxanthine uptake. The class given is functional, organism-based.
The target of test [12] is T2, Thioredoxin reductase. Put plainly: Binding affinity to Plasmodium falciparum TrxR in presence of NADPH.

Chain of Glutathione reductase (Plasmodium falciparum 3D7) (O15770 whole entry): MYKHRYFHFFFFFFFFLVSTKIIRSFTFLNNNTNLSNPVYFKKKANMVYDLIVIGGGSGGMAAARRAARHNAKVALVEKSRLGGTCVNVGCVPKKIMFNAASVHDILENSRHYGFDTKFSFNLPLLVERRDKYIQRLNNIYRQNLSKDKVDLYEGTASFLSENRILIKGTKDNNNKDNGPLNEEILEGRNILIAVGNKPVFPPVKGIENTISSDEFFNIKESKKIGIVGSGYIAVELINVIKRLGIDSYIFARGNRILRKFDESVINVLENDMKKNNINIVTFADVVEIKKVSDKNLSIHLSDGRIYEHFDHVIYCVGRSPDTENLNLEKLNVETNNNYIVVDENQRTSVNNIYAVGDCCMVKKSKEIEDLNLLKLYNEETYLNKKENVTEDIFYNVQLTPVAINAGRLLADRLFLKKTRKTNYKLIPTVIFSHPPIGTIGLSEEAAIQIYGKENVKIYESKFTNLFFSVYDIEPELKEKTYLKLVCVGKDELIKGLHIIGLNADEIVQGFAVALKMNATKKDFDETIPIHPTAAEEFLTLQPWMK

By inhibition is commonly meant the drop in the measured response relative to a control, in per cent. A high value points to a response far below the control. The term IC50 denotes the concentration that gives 50% inhibition. High values mean lower potency, low ones higher potency. Turning to `O=[N+]([O-])c1cc2nccnc2cc1[N+](=O)[O-]`, the inhibition in [1] amounted to 39%; in test [3] it was 27%; in test [5], 15%; in test [7], 70%; in test [8], 15%. The figures for the IC50 against Thioredoxin reductase [2], on Thioredoxin reductase [4] and with Plasmodium falciparum [6] were 140 µM, 2 µM and 15 µM, respectively.
On to `O=[N+]([O-])c1cc([N+](=O)[O-])cc(C(F)(F)F)c1`, for which the IC50 on Thioredoxin reductase [2] is more than 200 µM; on Thioredoxin reductase [4] it was 30 µM.
With `O=[N+]([O-])c1ccc2c(c1)OCO2`, the IC50 against Thioredoxin reductase [2] is more than 200 µM. In test [9], this compound gave an inhibition of less than 10%.
With `O=[N+]([O-])c1ccc2nccnc2c1`, the values for the IC50 against Thioredoxin reductase [2] and against Thioredoxin reductase [4] were more than 200 µM and 40 µM, respectively.
In general, Ki refers to a measure of affinity in units of concentration, obtained from inhibition or displacement. Take `O=[N+]([O-])c1cccc2nsnc12`: the inhibition is 69% in test [1] and 81% in [3]. Also, the Ki was 0.65 µM on Thioredoxin reductase [10] and 1 µM on Thioredoxin reductase [12]. In addition, the IC50 at Thioredoxin reductase [2] is 50 µM; against Thioredoxin reductase [4], 2 µM; in the test with Plasmodium falciparum [11], 2.9 µM; in the test on Plasmodium falciparum [6], 11 µM.
In the case of `O=[N+]([O-])c1cc(C(F)(F)F)ccc1Sc1ccc(C(F)(F)F)cc1[N+](=O)[O-]`, the figures for the IC50 at Thioredoxin reductase [2] and against Thioredoxin reductase [4] were more than 150 µM and 20 µM, respectively.
On to `O=[N+]([O-])c1ccc2c(c1[N+](=O)[O-])OCO2`, for which the figures for the IC50 against Thioredoxin reductase [2] and on Thioredoxin reductase [4] were 80 µM and 10 µM, respectively.
As for `O=[N+]([O-])c1ccc2nsnc2c1`, the IC50 against Thioredoxin reductase [2] worked out at 90 µM; at Thioredoxin reductase [4] it was 10 µM.
As to `O=[N+]([O-])c1cc(C(F)(F)F)cc([N+](=O)[O-])c1Cl` [CHLORALIN], the IC50 was 100 µM against Thioredoxin reductase [2] and 8 µM on Thioredoxin reductase [4].
